We go through 59 compounds from the METLIN SMRT retention time set (Domingo-Almenara et al. 2019).

The nature of the data set: gradient 5% acetonitrile 3 min, to 50% in 2 min, to 85% in 15 min, held 3 min, 100 µL/min. As to conditions: column: Zorbax Extend-C18 2.1 x 50 mm; eluents: water / acetonitrile, 0.1% formic acid. The method in brief:
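Retention times of pure standards were taken from adduct peaks that were selected by computer and manually inspected. Over 3 months, mixtures of ~100 molecules were run by HPLC–quadrupole time-of-flight mass spectrometry in positive and negative ionization mode. The Zorbax Extend-C18 column (2.1 × 50 mm, 1.8 μm) ran at 100 μL/min in water and acetonitrile, each containing 0.1% formic acid, with 40 μL dead volume and 900 μL dwell volume.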
`O=C(C1CCN(S(=O)(=O)c2ccc(-c3noc(COc4ccccc4)n3)cc2)CC1)N1CCCC1` came in with an RP-LC retention time of 961 s.

`CN(C)CCNC(=O)COc1ccccc1-c1nnc(-c2ccccc2)o1` displayed an RP-LC retention time of 659 s.

As to `CCn1cc(-c2nc(CC(=O)Nc3cc(F)ccc3F)cs2)c2cccnc21`, the RP-LC retention time was found to be 1020 s.

Take `C=CCn1c(=O)c2ccccc2n(Cc2nc(-c3cccc(Cl)c3)no2)c1=O`: the RP-LC retention time stood at 1110 s.

For the compound `CN(C)c1ccc(C(=O)N2CCN(c3cc(-c4ccccc4)[nH]n3)CC2)cc1`, the RP-LC retention time was 757 s.

Take `COCCn1cc2c3c(cccc31)CN(C(=O)Nc1ccccc1C(F)(F)F)CC2`: the RP-LC retention time was found to be 981 s.

For `CN(c1nc(-c2ccc(Cl)cc2)nc2ccccc12)C1CCCCC1`, the RP-LC retention time came out at 941 s.

On to `COc1cccc(Cn2nc3ccc(S(=O)(=O)N4CCC(C)CC4)cn3c2=O)c1`, for which the RP-LC retention time came to 900 s.

In turn, `COc1cc(-c2nc3ncccn3c2NCc2ccc(Cl)cc2)ccc1OC(C)C` returned an RP-LC retention time of 808 s.

`O=C(Cn1c(-c2ccc(F)cc2)nc2ccccc21)N1CCCCC1` returned an RP-LC retention time of 675 s.

Consider `Cc1ccc(NC(=O)c2[nH]c3cc(C)sc3c2CN2CCOCC2)c(F)c1`, for which the RP-LC retention time is 728 s.

`COc1ccc(NC(=O)N2C[C@@H](F)C[C@H]2C(=O)N2CCc3ccccc3C2)cc1F`: the RP-LC retention time is 797 s.

For `O=S(=O)(Nc1ccc(F)cc1)c1cccn2cnnc12`, the RP-LC retention time was 659 s.

The compound `Cc1cc(C(=O)N2CCCC2)c2cc(Br)ccc2n1` registered an RP-LC retention time of 677 s.

In turn, `COc1ccc(NC(=O)C2CCCN(c3cnc4nccnc4c3)C2)cc1` (centres undefined) returned an RP-LC retention time of 698 s.

`CC1CCCCN1CCNC(=O)Cn1c(=O)c2cccn2c2ccc(F)cc21` (centres undefined): the RP-LC retention time came to 612 s.

For the compound `CCC1CCCCN1CCCNC(=O)c1c(N2CCCC2=O)c2cc(OC)ccc2n1C` (centres undefined), the RP-LC retention time came to 638 s.

For the compound `CCc1ccc(NC(=O)N2CCc3[nH]cnc3C2c2ccncc2)cc1` (centres undefined), the RP-LC retention time was 581 s.

With `COc1ccc(NC(=O)CCNc2cnc3cnccn23)cc1F`, the RP-LC retention time was 589 s.

The compound `COC(=O)C1CCN(C(=O)C(=O)Nc2c3c(nn2-c2ccc(Cl)cc2)CSC3)CC1` showed an RP-LC retention time of 671 s.

In turn, `COc1ccc(-c2nnc(NC(=O)CSc3nc4ccccc4s3)s2)cc1` displayed an RP-LC retention time of 918 s.

Take `CC(C)c1ccc(NC(=O)Cn2nc(C(=O)N3CCCC3)c3ccccc32)cc1`: the RP-LC retention time worked out at 991 s.

As to `CCCc1nc2ccc(NC(=O)NCC)cc2c(=O)n1Cc1ccc(-c2ccccc2)cc1`, the RP-LC retention time was determined as 996 s.

The compound `CCCn1c(=O)sc2cc(S(=O)(=O)N3CCC(C(=O)NCc4cccc(C)c4)CC3)ccc21` showed an RP-LC retention time of 975 s.

In the case of `CCOc1ccc(NC(=O)N(C)CC2CCOCC2)cc1`, the RP-LC retention time was 719 s.

`O=C(CCCc1ccccc1)N1CCN(c2cc(-c3cccs3)[nH]n2)CC1` gave an RP-LC retention time of 860 s.

For the compound `CC1=NN(CCC#N)C(=O)/C1=C\c1ccc(N(C)C)cc1`, the RP-LC retention time amounted to 691 s.

`CN(C)CC1CN(C(=O)c2ccc(F)c(F)c2)CC12CCOCC2` (centres undefined) displayed an RP-LC retention time of 578 s.

The compound `CCOc1ccc(C(=O)NC2(c3nc(CC)no3)CCCCC2)cc1OCC` came in with an RP-LC retention time of 990 s.

Compound `CCCn1cc(C(=O)Nc2ccc(C)cc2)c(S(=O)(=O)N2CCSCC2)n1` showed an RP-LC retention time of 1090 s.

`COc1cc(OC)c(NC(=O)Cn2c(=O)n(-c3ccccc3)c(=O)c3c2cc(C)n3C)cc1Cl` registered an RP-LC retention time of 861 s.

Turning to `O=C(Nc1ccc(Cl)cc1)C1CCN(C(=O)C2Sc3ccccc3NC2=O)CC1` (centres undefined), the RP-LC retention time stood at 819 s.

Take `O=c1oc2cc(O)c(Cl)cc2c2c1CCC2`: the RP-LC retention time amounted to 794 s.

For `O=C(NCc1ccccc1)C1CCN(S(=O)(=O)c2cc(C(=O)N3CCOCC3)cs2)CC1`, the RP-LC retention time was 694 s.

Turning to `Cc1ccc(-c2nc3cnccn3c2Nc2cccc(Cl)c2C)cc1`, the RP-LC retention time was found to be 1080 s.

Regarding `Cc1nc(-c2ccc3c(c2)n(CC(=O)NC2CCCCCC2)c(=O)n3C(C)C)no1`, the RP-LC retention time is 841 s.

Compound `O=C(NCc1ccc(F)c(Cl)c1)C1CCN(C(=O)c2ncn3c2COC(c2ccccc2)C3)CC1` (centres undefined) registered an RP-LC retention time of 842 s.

`COc1cccc(Cn2nc3c(S(=O)(=O)N4CCCC4)cccn3c2=O)c1` had an RP-LC retention time of 814 s.

In the case of `Cc1nn(CC(=O)Nc2ccc(Cl)cc2F)c(=O)c2noc(C)c12`, the RP-LC retention time was determined as 796 s.

In the case of `Cc1ccc(CN2CCN(CC(=O)Nc3nc(-c4ccc(C)c(C)c4)cs3)CC2)cc1`, the RP-LC retention time came to 831 s.

In turn, `COC(=O)c1c(C)[nH]c(C(=O)N2CCCC(C(=O)NCCC3=CCCCC3)C2)c1C` (centres undefined) showed an RP-LC retention time of 825 s.

As for `O=C(NCC1CCN(S(=O)(=O)C2CC2)CC1)C1(c2ccc(F)cc2)CC1`, the RP-LC retention time turned out to be 595 s.

For the compound `Cc1ccccc1CN1CCCN(c2ncccc2-c2nc(C3CC3)no2)CC1`, the RP-LC retention time is 711 s.

Turning to `COc1cccc(CNC(=O)Cn2nc3c(Oc4ccc(Cl)cc4)nccn3c2=O)c1`, the RP-LC retention time worked out at 849 s.

For the compound `CCC(C(=O)N1CCN(CC)CC1)n1c2ccccc2c2cnn(C)c(=O)c21` (centres undefined), the RP-LC retention time amounted to 619 s.

For `CC(=O)N1CCc2[nH]c3ccc(C(=O)Nc4ccc(N5CCOCC5)cc4)cc3c2C1`, the RP-LC retention time came out at 654 s.

`COCCNC(=O)c1nc2ccccn2c1-c1ccc(F)cc1` returned an RP-LC retention time of 699 s.

On to `CCOC(=O)CNC(=O)N1CCN(Cc2nc3cc(C)ccc3o2)CC1`, for which the RP-LC retention time came to 616 s.

In turn, `CCCN(C)C(=O)C1CCCCc2nnc(C(C)C)n21` (centres undefined) showed an RP-LC retention time of 622 s.

With `Cc1ccnc(OCC(=O)Nc2ccc(OC(F)(F)F)cc2)n1`, the RP-LC retention time stood at 771 s.

The compound `CCN1/C(=C/C(C)=O)Sc2ccc(OC)cc21` had an RP-LC retention time of 845 s.

`CCn1cc(-c2nc(C(=O)Nc3ccc(F)cc3C)cs2)c2cccnc21`: the RP-LC retention time was found to be 1000 s.

For `Cc1c(C#N)c2ccccc2n1CC(=O)NC(C)c1ccc2c(c1)OCCCO2` (centres undefined), the RP-LC retention time was 892 s.

Compound `CCCn1nc(CNC(=O)CNC(C)=O)c2ccccc21` showed an RP-LC retention time of 632 s.

Regarding `Cc1ccc(C)c(NC(=O)c2cnc(-c3ccc(F)cc3)nc2-c2ccncc2)c1`, the RP-LC retention time is 943 s.

In turn, `COc1ccc2[nH]cc(CCNC(=O)C(C)C3CCN(S(=O)(=O)c4c(C)noc4C)CC3)c2c1` (centres undefined) had an RP-LC retention time of 831 s.

`CCOc1ccccc1NC(=O)Cn1c(N2CCOCC2)nc(COC)cc1=O`: the RP-LC retention time was 967 s.

`O=C(NC1CCCN(c2cc(-c3ccccc3)[nH]n2)C1)c1ccc2[nH]ccc2c1` (centres undefined) displayed an RP-LC retention time of 729 s.

Compound `Cc1cc(N2CCN(c3ccccn3)CC2)n2nc(C(F)(F)F)c(-c3ccccc3)c2n1` registered an RP-LC retention time of 855 s.
